“And” between values parts separate entries of the source, which are not always exact repeats. Equal entries are not always repeated.
Tested on: rat primary hepatocytes
Assay: Metabolic disposition of [^14C]-Compound 1 and [^14C]-2′-C-methyl guanosine in rat primary hepatocytes (incubation medium, cellular extracts, nucleotide levels)
Format: in vitro ADME, Sprague Dawley rat
Protocol: Primary hepatocytes: Freshly isolated cells from animal and human liver were obtained in suspension on ice. Cells were pelleted by centrifugation at 70-75×g (rat) or 95-90×g (monkey and human) and resuspended at 0.8 million cells per mL of platting medium (William's E supplemented with 5% FBS, 0.5% penicillin-streptomycin, 1% L-glutamine, 4 μg/mL insulin and 1 μM dexamethasone). Multi-well collagen I-coated plates (rat tail collagen type I; 12- or 6-well) were then seeded by addition of 1 mL (12-well; 0.8 million cells/well) or 2 mL (6-well; 1.6 million cells/well) of cell suspension. The plates were gently shaken to evenly distribute the cells and placed in an incubator at 37° C. for approximately 4 to 6 hours to allow cells to attach. Once cells were attached, the platting medium was removed and replaced with hepatocyte culture medium (William's E supplemented with penicillin-streptomycin, 1% L-glutamine, 1% insulin-transferrin-selenium and 0.1 μM dexamethasone). Cells were left overnight in an incubator at 37° C. to acclimatize to culture and the medium.
Hepatocyte incubations with radiolabeled Compound 1 and 2′-C-methyl guanosine, both labeled in the C-8 position of the guanine moiety, were conducted at a final volume of 2.0 mL hepatocyte culture medium/well ([…]). Culture medium from overnight incubation of cells was removed and replaced with fresh medium, pre-warmed to 37° C., containing 1 or 10 μM [^14C]-Compound 1 ([…]) or [^14C]-2′-C-methyl guanosine (127 DPM/μmol) from a stock solution in DMSO (final DMSO concentration was 0.1%) or 50% ethanol (final ethanol concentration was 0.2%). After 1, 4, 8 and 24 hours, 0.5-1.0 mL of incubation medium was removed and stored at −20° C. until analysis (described below). The remaining medium was discarded and cell monolayers were carefully washed two times with ice-cold PBS. Following the last wash, all PBS was carefully removed and 1.0 mL of extraction solution (ice-cold 70% methanol) added. Cells were scrapped off and suspended in the extraction solution, transferred to 2 mL polypropylene microfuge tubes and intracellular contents extracted overnight at −20° C.
Preliminary identification of putative metabolites was conducted by comparing the retention time of observed metabolites in incubation medium and cellular extracts with retention times obtained with chemically synthesized standards using the chromatography conditions described below. Further identification of 2′-C-methyl guanosine nucleotides (mono-, di- and triphosphate) was carried out by incubating cellular extract samples with alkaline phosphatase (10 units for 60 min at 37° C.) and comparing the HPLC retention times of the resulting nucleosides with that of authentic 2′-C-methyl guanosine.
Cellular extracts were prepared by centrifugation at 16,000 RCF using an Eppendorf microcentrifuge (Eppendorf, Model 5415D) for 10 min to remove cellular debris. An aliquot of 5-10 μL of the supernatant was added to 5 mL of EcoLite™ (MP, Irvine, Calif.) liquid scintillation cocktail and radioactivity measured by liquid scintillation counting (LSC) using a Beckman Coulter LS6500 multipurpose liquid scintillation counter (Beckman Instruments, Fullerton, Calif.). The remaining sample was then dried using a Labconco refrigerated centrivap concentrator (Labconco, Kansas City, Mo.). Dry extracts were reconstituted in 120 μL of HPLC-grade water and centrifuged at 16,000 RCF using an Eppendorf microcentrifuge for 10 min. Prior to HPLC analysis (described below), radioactivity of the concentrated extracts was measured by LSC using 5 μL aliquots. Extraction recovery was then determined by comparing total radioactivity in extracts before and after drying. The remaining extract was then analyzed by HPLC with online radioactivity detection using a Flow Scintillation Analyzer Radiomatic™ 515TR. Radioactivity in the separated components was quantified by integrating the peaks using Flo-One™ Software (Perkin Elmer Life Sciences). […]

[1] = rat hepatocytes (Rs458), 1 μM [^14C]-Compound 1, 0 h
[2] = rat hepatocytes (Rs458), 1 μM [^14C]-Compound 1, 1 h
[3] = rat hepatocytes (Rs458), 1 μM [^14C]-Compound 1, 8 h
[4] = rat hepatocytes (Rs458), 1 μM [^14C]-Compound 1, 24 h
[5] = rat hepatocytes Rs448, 10 μM [^14C]-2′-C-methyl guanosine, 1 h
[6] = rat hepatocytes Rs448, 10 μM [^14C]-2′-C-methyl guanosine, 4 h
[7] = rat hepatocytes Rs448, 10 μM [^14C]-2′-C-methyl guanosine, 8 h
[8] = rat hepatocytes Rs448, 10 μM [^14C]-2′-C-methyl guanosine, 24 h
[9] = rat hepatocytes Rs458, 1 μM [^14C]-2′-C-methyl guanosine, 1 h
[10] = rat hepatocytes Rs458, 1 μM [^14C]-2′-C-methyl guanosine, 8 h
[11] = rat hepatocytes Rs458, 1 μM [^14C]-2′-C-methyl guanosine, 24 h
[12] = rat hepatocytes Rs458, 10 μM [^14C]-2′-C-methyl guanosine, 1 h
[13] = rat hepatocytes Rs458, 10 μM [^14C]-2′-C-methyl guanosine, 4 h
[14] = rat hepatocytes Rs458, 10 μM [^14C]-2′-C-methyl guanosine, 8 h
[15] = rat hepatocytes Rs458, 10 μM [^14C]-2′-C-methyl guanosine, 24 h

## C[C@@]1(O)[C@H](O)[C@@H](COP(=O)(O)O)O[C@H]1n1cnc2c(=O)[nH]c(N)nc21 [Compound 5, [(2R)-2-methyl-β-D-ribofuranosyl]guanine 5′-monophosphate]
Rat hepatocytes (Rs448, Rs458), 10 μM [^14C]-Compound 1, 1 h, listed as Compd 5
  metabolites observed in cellular extracts (% of total radioactivity): 4.37% and 2.65%
Rat hepatocytes (Rs448, Rs458), 10 μM [^14C]-Compound 1, 4 h, listed as Compd 5
  metabolites observed in cellular extracts (% of total radioactivity): 4.02% and 4.53%
Rat hepatocytes (Rs448, Rs458), 10 μM [^14C]-Compound 1, 8 h, listed as Compd 5
  metabolites observed in cellular extracts (% of total radioactivity): 3.23% and 3.84%
[1]
  2′-C-methyl guanosine nucleotide levels in cellular extracts: BLD (BLD = below limit of detection (0.02 pmol/million cells))
  metabolites observed in medium (% of total radioactivity): BLD
[2]
  2′-C-methyl guanosine nucleotide levels in cellular extracts: 6.00 pmol/million cells
  metabolites observed in cellular extracts (% of total radioactivity): 3.74%
  metabolites observed in medium (% of total radioactivity): BLD
[3]
  2′-C-methyl guanosine nucleotide levels in cellular extracts: 11.0 pmol/million cells
  metabolites observed in cellular extracts (% of total radioactivity): 3.51%
  metabolites observed in medium (% of total radioactivity): 6.41%
[4]
  2′-C-methyl guanosine nucleotide levels in cellular extracts: 11.0 pmol/million cells
  metabolites observed in cellular extracts (% of total radioactivity): 6.68%
  metabolites observed in medium (% of total radioactivity): no Compound 5 was detected and BLD
Rat hepatocytes (lots Rs448, Rs458), 10 μM [^14C]-Compound 1, 0 h
  metabolites observed in medium (% of total radioactivity): BLD
Rat hepatocytes (lots Rs448, Rs458), 10 μM [^14C]-Compound 1, 4 h
  metabolites observed in medium (% of total radioactivity): 5.3% and 3.6%
Rat hepatocytes (lots Rs448, Rs458), 10 μM [^14C]-Compound 1, 8 h
  metabolites observed in medium (% of total radioactivity): 6.1% and 3.3%
Rat hepatocytes (lots Rs448, Rs458), 10 μM [^14C]-Compound 1, 24 h
  metabolites observed in medium (% of total radioactivity): 2.9% and 2.6%
Rat hepatocytes Rs448, 10 μM [^14C]-2′-C-methyl guanosine, 0 h
  2′-C-methyl guanosine nucleotide levels in cellular extracts: 0 pmol/million cells
[5]
  2′-C-methyl guanosine nucleotide levels in cellular extracts: BLD^a (BLD = below limit of detection (0.02 pmol/million cells))
  Major metabolites observed in cellular extracts (% of total radioactivity): BLD^a (BLD = below limit of detection (30 DPM))
[6]
  2′-C-methyl guanosine nucleotide levels in cellular extracts: BLD (BLD = below limit of detection (0.02 pmol/million cells))
  Major metabolites observed in cellular extracts (% of total radioactivity): BLD (BLD = below limit of detection (30 DPM))
[7]
  2′-C-methyl guanosine nucleotide levels in cellular extracts: BLD (BLD = below limit of detection (0.02 pmol/million cells))
  Major metabolites observed in cellular extracts (% of total radioactivity): BLD (BLD = below limit of detection (30 DPM))
[8]
  2′-C-methyl guanosine nucleotide levels in cellular extracts: 25.0 pmol/million cells
  Major metabolites observed in cellular extracts (% of total radioactivity): 2.56 % of total radioactivity
Rat hepatocytes Rs448, 10 μM [^14C]-Compound 1, 0 h
  2′-C-methyl guanosine nucleotide levels in cellular extracts: 0 pmol/million cells
Rat hepatocytes Rs448, 10 μM [^14C]-Compound 1, 1 h
  2′-C-methyl guanosine nucleotide levels in cellular extracts: 43.0 pmol/million cells
Rat hepatocytes Rs448, 10 μM [^14C]-Compound 1, 4 h
  2′-C-methyl guanosine nucleotide levels in cellular extracts: 81.0 pmol/million cells
Rat hepatocytes Rs448, 10 μM [^14C]-Compound 1, 8 h
  2′-C-methyl guanosine nucleotide levels in cellular extracts: 79.0 pmol/million cells
Rat hepatocytes Rs448, 10 μM [^14C]-Compound 1, 24 h
  2′-C-methyl guanosine nucleotide levels in cellular extracts: 39.0 pmol/million cells
Rat hepatocytes Rs458, 1 μM [^14C]-2′-C-methyl guanosine, 0 h
  2′-C-methyl guanosine nucleotide levels in cellular extracts: BLD (BLD = below limit of detection (0.02 pmol/million cells))
[9]
  2′-C-methyl guanosine nucleotide levels in cellular extracts: BLD (BLD = below limit of detection (0.02 pmol/million cells))
  Major metabolites observed in cellular extracts (% of total radioactivity): BLD^a (BLD = below limit of detection (30 DPM))
[10]
  2′-C-methyl guanosine nucleotide levels in cellular extracts: BLD (BLD = below limit of detection (0.02 pmol/million cells))
  Major metabolites observed in cellular extracts (% of total radioactivity): BLD (BLD = below limit of detection (30 DPM))
[11]
  2′-C-methyl guanosine nucleotide levels in cellular extracts: 5.40 pmol/million cells
  Major metabolites observed in cellular extracts (% of total radioactivity): 6.83 % of total radioactivity
Rat hepatocytes Rs458, 10 μM [^14C]-2′-C-methyl guanosine, 0 h
  2′-C-methyl guanosine nucleotide levels in cellular extracts: 0 pmol/million cells
[12]
  2′-C-methyl guanosine nucleotide levels in cellular extracts: BLD (BLD = below limit of detection (0.02 pmol/million cells))
  Major metabolites observed in cellular extracts (% of total radioactivity): BLD^a (BLD = below limit of detection (30 DPM))
[13]
  2′-C-methyl guanosine nucleotide levels in cellular extracts: BLD (BLD = below limit of detection (0.02 pmol/million cells))
  Major metabolites observed in cellular extracts (% of total radioactivity): BLD (BLD = below limit of detection (30 DPM))
[14]
  2′-C-methyl guanosine nucleotide levels in cellular extracts: BLD (BLD = below limit of detection (0.02 pmol/million cells))
  Major metabolites observed in cellular extracts (% of total radioactivity): BLD (BLD = below limit of detection (30 DPM))
[15]
  2′-C-methyl guanosine nucleotide levels in cellular extracts: 88.0 pmol/million cells
  Major metabolites observed in cellular extracts (% of total radioactivity): 9.39 % of total radioactivity
Rat hepatocytes Rs458, 10 μM [^14C]-Compound 1, 0 h
  2′-C-methyl guanosine nucleotide levels in cellular extracts: 0 pmol/million cells
Rat hepatocytes Rs458, 10 μM [^14C]-Compound 1, 1 h
  2′-C-methyl guanosine nucleotide levels in cellular extracts: 28.0 pmol/million cells
Rat hepatocytes Rs458, 10 μM [^14C]-Compound 1, 4 h
  2′-C-methyl guanosine nucleotide levels in cellular extracts: 88.0 pmol/million cells
Rat hepatocytes Rs458, 10 μM [^14C]-Compound 1, 8 h
  2′-C-methyl guanosine nucleotide levels in cellular extracts: 86.0 pmol/million cells
Rat hepatocytes Rs458, 10 μM [^14C]-Compound 1, 24 h
  2′-C-methyl guanosine nucleotide levels in cellular extracts: 181 pmol/million cells
